The text below walks through data of ChEMBL document CHEMBL5360657, “Discovery of the TLR7/8 Antagonist MHV370 for Treatment of Systemic Autoimmune Diseases” (ACS Med Chem Lett, 2023).

Series [1] deals with Toll-like receptor 7 (Mus musculus) (UniProt P58681). Description: In vivo antagonist activity against TLR7 in po dosed mouse assessed as suppression of IFN alpha level measured at 3 hrs by LC-MS/MS analysis. The note with it: dose 1-30 mg/kg.
Series [2] shares this target. Description: In vivo antagonist activity against TLR7 in mouse assessed as inhibition of TNF level at 10 mg/kg, po measured after 2 hrs by LC-MS/MS analysis relative to control.
Series [3] can be described thus: Oral bioavailability in mouse at 20 mg/kg. Format: ADME, organism-based. The conditions noted are these: in vivo.

By inhibition in vivo is commonly meant the relative decrease from the control value, in per cent. As to `Cc1cc(N2CCc3c(c(C)nn3CC34CCC(NC(=O)[C@@H]5COCCN5)(CC3)CC4)C2)c2cnn(C)c2n1` [MHV-370], the Activity result in series [1] was “Dose-Dependent Effect”. In addition, the inhibition in vivo at 10 mg/kg in series [2] is around 100%.

The bioavailability is dose-corrected exposure relative to a reference, in per cent. Low readings indicate little systemic uptake, high ones much systemic uptake. In turn, `Cc1cc(N2CCc3c(c(C)nn3CC34CCC(N)(CC3)CC4)C2)c2cnn(C)c2n1` came in with a bioavailability in series [3] of 4%.
